In ChEMBL document CHEMBL1122221, “Antimycotic azoles. 6. Synthesis and antifungal properties of terconazole, a novel triazole ketal” (1983):

Experiments:
Candida albicans [1] = test: Concentration for complete inhibition of growth of Candida albicans; format: functional, organism-based
Aspergillus fumigatus [2] = test: Concentration for complete inhibition of growth of Aspergillus fumigatus; format: functional, organism-based
Aspergillus fumigatus [3] = test: Concentration for complete inhibition of growth of Aspergillus fumigatus in Sabouraud broth with 10% inactive bovine serum; format: functional, organism-based
Aspergillus fumigatus [4] = test: Concentration for marked inhibition of growth of Aspergillus fumigatus in Sabouraud broth; format: functional, organism-based
Aspergillus fumigatus [5] = test: Concentration for marked inhibition of growth of Aspergillus fumigatus in Sabouraud broth with 10% inactive bovine serum; format: functional, organism-based
Candida albicans [6] = test: Concentration for complete inhibition of growth of Candida albicans in Sabouraud broth with 10% inactive bovine serum; format: functional, organism-based
Candida albicans [7] = test: Concentration for marked inhibition of growth of Candida albicans in Sabouraud broth; format: functional, organism-based
Candida albicans [8] = test: Concentration for marked inhibition of growth of Candida albicans in Sabouraud broth with 10% inactive bovine serum; format: functional, organism-based
Candida tropicalis [9] = test: Concentration for marked inhibition of growth of Candida tropicalis in Sabouraud broth; format: functional, organism-based
Candida tropicalis [10] = test: Concentration for marked inhibition of growth of Candida tropicalis in Sabouraud broth with 10% inactive bovine serum; format: functional, organism-based
Candida tropicalis [11] = test: Concentration for complete inhibition of growth of Candida tropicalis; format: functional, organism-based
Candida tropicalis [12] = test: Concentration for complete inhibition of growth of Candida tropicalis in Sabouraud broth with 10% inactive bovine serum; format: functional, organism-based
Cryptococcus neoformans [13] = test: Concentration for complete inhibition of growth of Cryptococcus neoformans; format: functional, organism-based
Cryptococcus neoformans [14] = test: Concentration for complete inhibition of growth of Cryptococcus neoformans in Sabouraud broth with 10% inactive bovine serum; format: functional, organism-based
Cryptococcus neoformans [15] = test: Concentration for marked inhibition of growth of Cryptococcus neoformans in Sabouraud broth; format: functional, organism-based
Cryptococcus neoformans [16] = test: Concentration for marked inhibition of growth of Cryptococcus neoformans in Sabouraud broth with 10% inactive bovine serum; format: functional, organism-based
Cavia porcellus [17] = test: Evaluated for cure against microsporosis after 12 days of one time a day topical treatment with 0.5% of compound in a group of 36 guinea pigs; format: functional
Cavia porcellus [18] = test: Evaluated for marked improvement against microsporosis after 12 days of one time a day topical treatment with 0.5% of compound in a group of 36 guinea pigs; Improved; format: functional
Cavia porcellus [19] = test: Evaluated for marked improvement against trichophytosis after 12 days of one time a day topical treatment with 0.5% of compound in a group of 20 guinea pigs; Improved; format: functional
Microsporum canis [20] = test: Concentration for complete inhibition of growth of Microsporum canis; format: functional, organism-based
Microsporum canis [21] = test: Concentration for complete inhibition of growth of Microsporum canis in Sabouraud broth with 10% inactive bovine serum; format: functional, organism-based
Microsporum canis [22] = test: Concentration for marked inhibition of growth of Microsporum canis in Sabouraud broth; format: functional, organism-based
Microsporum canis [23] = test: Concentration for marked inhibition of growth of Microsporum canis in Sabouraud broth with 10% inactive bovine serum; format: functional, organism-based
Mucor [24] = test: Concentration for complete inhibition of growth of Mucor sp.; format: functional
Mucor [25] = test: Concentration for complete inhibition of growth of Mucor sp. in Sabouraud broth with 10% inactive bovine serum; format: functional
Mucor [26] = test: Concentration for marked inhibition of growth of Mucor sp. in Sabouraud broth; format: functional
Mucor [27] = test: Concentration for marked inhibition of growth of Mucor sp. in Sabouraud broth with 10% inactive bovine serum; format: functional
Phialophora verrucosa [28] = test: Concentration for complete inhibition of growth of Phialophora verrucosa in Sabouraud broth with 10% inactive bovine serum; format: functional, organism-based
Phialophora verrucosa [29] = test: Concentration for marked inhibition of growth of Phialophora verrucosa in Sabouraud broth with 10% inactive bovine serum; format: functional, organism-based
Phialophora verrucosa [30] = test: Concentration for complete inhibition of growth of Phialophora verrucosa; format: functional, organism-based
Rattus norvegicus [31] = test: Evaluated for cure against vaginal candidosis after 3 days of 2 times a day topical treatment with 0.5% of compound in a group of 48 rats; format: functional
Saprolegnia [32] = test: Concentration for complete inhibition of growth of Saprolegnia sp.; format: functional, organism-based
Saprolegnia [33] = test: Concentration for complete inhibition of growth of Saprolegnia sp. in Sabouraud broth with 10% inactive bovine serum; format: functional, organism-based
Saprolegnia [34] = test: Concentration for marked inhibition of growth of Saprolegnia sp. in Sabouraud broth; format: functional, organism-based
Saprolegnia [35] = test: Concentration for marked inhibition of growth of Saprolegnia sp. in Sabouraud broth with 10% inactive bovine serum; format: functional, organism-based
Sporothrix schenckii [36] = test: Concentration for complete inhibition of growth of Sporothrix schenck ii; format: functional, organism-based
Sporothrix schenckii [37] = test: Concentration for complete inhibition of growth of Sporothrix schenck ii in Sabouraud broth with 10% inactive bovine serum; format: functional, organism-based
Sporothrix schenckii [38] = test: Concentration for marked inhibition of growth of Sporo thrix schenck ii in Sabouraud broth; format: functional, organism-based
Sporothrix schenckii [39] = test: Concentration for marked inhibition of growth of Sporothrix schenck ii in Sabouraud broth with 10% inactive bovine serum; format: functional, organism-based
Trichophyton benhamiae [40] = test: Concentration for complete inhibition of growth of Trichophyton mentagrophytes; format: functional, organism-based; conditions: Arthroderma benhamiae
Trichophyton benhamiae [41] = test: Concentration for complete inhibition of growth of Trichophyton mentagrophytes in Sabouraud broth with 10% inactive bovine serum; format: functional, organism-based; conditions: Arthroderma benhamiae
Trichophyton benhamiae [42] = test: Concentration for marked inhibition of growth of Trichophyton mentagrophytes in Sabouraud broth; format: functional, organism-based; conditions: Arthroderma benhamiae
Trichophyton rubrum [43] = test: Concentration for complete inhibition of growth of Trichophyton rubrum; format: functional, organism-based
Trichophyton rubrum [44] = test: Concentration for complete inhibition of growth of Trichophyton rubrum in Sabouraud broth with 10% inactive bovine serum; format: functional, organism-based
Trichophyton rubrum [45] = test: Concentration for marked inhibition of growth of Trichophyton rubrum in Sabouraud broth; format: functional, organism-based
Trichophyton rubrum [46] = test: Concentration for marked inhibition of growth of Trichophyton rubrum in Sabouraud broth with 10% inactive bovine serum; format: functional, organism-based
Trichophyton benhamiae [47] = test: Concentration for marked inhibition of growth of Trichophyton mentagrophytes in Sabouraud broth with 10% inactive bovine serum; format: functional, organism-based; conditions: Arthroderma benhamiae
Cavia porcellus [48] = test: Evaluated for cure against trichophytosis after 12 days of one time a day topical treatment with 0.5% of compound in a group of 20 guinea pigs; format: functional
Phialophora verrucosa [49] = test: Concentration for marked inhibition of growth of Phialophora verrucosa in Sabouraud broth; format: functional, organism-based
Rattus norvegicus [50] = test: Evaluated for marked improvement against vaginal candidosis after 3 days of 2 times a day topical treatment with 0.5% of compound in a group of 48 rats; Improved; format: functional
Cryptococcus neoformans [51] = test: Concentration for complete inhibition of growth of Cryptococcus neo formans; format: functional, organism-based
Cavia porcellus [52] = test: Evaluated for cure against microsporosis after topical treatment with 1% of compound in a group of 8 guinea pigs; format: functional
Cavia porcellus [53] = test: Evaluated for cure against trichophytosis after topical treatment with 1% of compound in a group of 6 guinea pigs; format: functional
Cavia porcellus [54] = test: Evaluated for marked improvement against microsporosis after topical treatment with 0.5% of compound in a group of 8 guinea pigs; format: functional
Cavia porcellus [55] = test: Evaluated for marked improvement against trichophytosis after topical treatment with 0.5% of compound in a group of 6 guinea pigs; format: functional
Phialophora verrucosa [56] = test: Concentration for complete inhibition of growth of Phialophora uerrucosa; format: functional, organism-based
Rattus norvegicus [57] = test: Evaluated for cure against vaginal candidosis after topical treatment with 1% of compound in a group of 10 rats; format: functional
Rattus norvegicus [58] = test: Evaluated for marked improvement against vaginal candidosis after topical treatment with 0.5% of compound in a group of 10 rats; format: functional
Sporothrix schenckii [59] = test: Concentration for complete inhibition of growth of Sporo thrix schenck ii; format: functional, organism-based

CC(C)N1CCN(c2ccc(OCC3COC(Cn4cncn4)(c4ccc(Cl)cc4Cl)O3)cc2)CC1 (configuration not stated) [TERCONAZOLE]
Concentration (Candida albicans [1]): > 100 µg/mL | Concentration (Aspergillus fumigatus [2]): > 100 µg/mL | Concentration (Aspergillus fumigatus [3]): > 100 µg/mL | Concentration (Aspergillus fumigatus [4]): > 100 µg/mL | Concentration (Aspergillus fumigatus [5]): 100 µg/mL | Concentration (Candida albicans [6]): 100 µg/mL | Concentration (Candida albicans [7]): 10 µg/mL | Concentration (Candida albicans [8]): 0.1 µg/mL | Concentration (Candida tropicalis [9]): 1 µg/mL | Concentration (Candida tropicalis [10]): 0.1 µg/mL | Concentration (Candida tropicalis [11]): 10 µg/mL | Concentration (Candida tropicalis [12]): 1 µg/mL | Concentration (Cryptococcus neoformans [13]): 10 µg/mL | Concentration (Cryptococcus neoformans [14]): 1 µg/mL | Concentration (Cryptococcus neoformans [15]): 1 µg/mL | Concentration (Cryptococcus neoformans [16]): 0.1 µg/mL | Cure (Cavia porcellus [17]): 19 | Activity (Cavia porcellus [18]): 17 | Activity (Cavia porcellus [19]): 0 | Concentration (Microsporum canis [20]): 100 µg/mL | Concentration (Microsporum canis [21]): 100 µg/mL | Concentration (Microsporum canis [22]): 100 µg/mL | Concentration (Microsporum canis [23]): 10 µg/mL | Concentration (Mucor [24]): > 100 µg/mL | Concentration (Mucor [25]): 100 µg/mL | Concentration (Mucor [26]): > 100 µg/mL | Concentration (Mucor [27]): 100 µg/mL | Concentration (Phialophora verrucosa [28]): 10 µg/mL | Concentration (Phialophora verrucosa [29]): 1 µg/mL | Concentration (Phialophora verrucosa [30]): 100 µg/mL | Cure (Rattus norvegicus [31]): 35 | Concentration (Saprolegnia [32]): 100 µg/mL | Concentration (Saprolegnia [33]): 10 µg/mL | Concentration (Saprolegnia [34]): 10 µg/mL | Concentration (Saprolegnia [35]): 1 µg/mL | Concentration (Sporothrix schenckii [36]): 100 µg/mL | Concentration (Sporothrix schenckii [37]): 100 µg/mL | Concentration (Sporothrix schenckii [38]): 100 µg/mL | Concentration (Sporothrix schenckii [39]): 1 µg/mL | Concentration (Trichophyton benhamiae [40]): 1 µg/mL | Concentration (Trichophyton benhamiae [41]): 1 µg/mL | Concentration (Trichophyton benhamiae [42]): 1 µg/mL | Concentration (Trichophyton rubrum [43]): 100 µg/mL | Concentration (Trichophyton rubrum [44]): 10 µg/mL | Concentration (Trichophyton rubrum [45]): 10 µg/mL | Concentration (Trichophyton rubrum [46]): 1 µg/mL | Concentration (Trichophyton benhamiae [47]): 0.1 µg/mL | Cure (Cavia porcellus [48]): 20 | Concentration (Phialophora verrucosa [49]): 10 µg/mL | Activity (Rattus norvegicus [50]): 2

Clc1ccccc1C(c1ccccc1)(c1ccccc1)n1ccnc1 [CLOTRIMAZOLE]
Concentration (Candida albicans [1]): > 100 µg/mL | Concentration (Aspergillus fumigatus [2]): 100 µg/mL | Concentration (Candida tropicalis [11]): > 100 µg/mL | Concentration (Cryptococcus neoformans [51]): > 100 µg/mL | Cure (Cavia porcellus [52]): 4 | Cure (Cavia porcellus [53]): 3 | Improved (Cavia porcellus [54]): 1 | Improved (Cavia porcellus [55]): 1 | Concentration (Microsporum canis [20]): < 1 µg/mL | Concentration (Mucor [24]): > 100 µg/mL | Concentration (Phialophora verrucosa [56]): > 100 µg/mL | Cure (Rattus norvegicus [57]): 2 | Improved (Rattus norvegicus [58]): 2 | Concentration (Saprolegnia [32]): > 100 µg/mL | Concentration (Sporothrix schenckii [59]): > 100 µg/mL | Concentration (Trichophyton benhamiae [40]): < 1 µg/mL | Concentration (Trichophyton rubrum [43]): < 1 µg/mL
